Laboratory results taken from paper PMC5531494, “Target specificity, in vivo pharmacokinetics, and efficacy of the putative STAT3 inhibitor LY5 in osteosarcoma, Ewing's sarcoma, and rhabdomyosarcoma” (PLoS ONE, 2017).
Like-named read-outs stand apart in the source and are kept apart here.

Assay: PK in normal beagle dogs, oral capsules of LY5 powder
Assay type: in vivo
Settings: plasma, fasted; for AUC(0-inf): read-out: AUC inf-obs
Description: LY5 was evaluated in two normal purpose-bred beagle dogs (female 8.8 kg; male 11.2 kg) receiving a single dose of 1mg/kg LY5 IV then orally by gavage 7 days later to establish the PK profile and assess the spectrum of clinical toxicities associated with LY5 administration. The oral dosing was repeated in the fed and fasted state. The starting dose was determined based on allometric scaling from the maximal tolerated dose studies performed in mice. Dogs were washed out for 30 days, and then given a dose of 25 mg in a capsule orally, followed by a 50 mg capsule dose 14 days later. Full PK sampling was performed over 24 hours following each dose of LY5. The dogs received LY5 and were used for the PK analysis but were not euthanized upon conclusion of the study.
The liquid chromatography-mass spectrometry system utilized for these analyses consisted of a Dionex Ultimate 3000 RSLCnano High Performance Liquid Chromatography system and a Thermo Finnigan Quantum Ultras EMR mass spectrometer with an electrospray ionization source. Positive ionization mode was used for both LY5 and the internal standard, hesperetin. Plasma samples were collected and analyzed by the OSU James Comprehensive Cancer Center Pharmacoanalytical Shared Resource. Pharsight Phoenix WinNonlin software using non-compartmental analysis was used to generate PK parameters including maximum plasma concentration (Cmax), amount of time that drug is present at Cmax (Tmax), and total area under the curve (AUC). AUC all and AUC last were calculated by linear trapezoidal method of concentration-time curve up to the last measured point. AUC inf-obs was calculated by log-linear extrapolation of the terminal phase beyond the last collection time. Bioavailability (F) was calculated for IP and PO administration routes. Plasma stability and liver microsomal stability of LY5 were also assessed through this shared resource.

[1] = female, Dog #2, 25 mg oral capsule
[2] = female, Dog #2, 50mg oral capsule
[3] = male, Dog #1, 25 mg oral capsule
[4] = male, Dog #1, 50mg oral capsule

In the case of NS(=O)(=O)c1cccc2c1C(=O)C=C(Nc1cccnc1)C2=O [LY5, 5,8-dioxo-6-(pyridin-3-ylamino)-5,8-dihydronaphthalene-1-sulfonamide], the AUC(0-t) [1] is reported as 2.51 µM·h, the Tmax [1] is reported as 2 h and the AUC(0-inf) [1] is reported as 2.53 µM·h. For the same compound, the AUC(0-t) [2] was 5.93 µM·h, the Tmax [2] was 4 h and the AUC(0-inf) [2] was 5.96 µM·h. It also gave an AUC(0-t) [3] of 2.62 µM·h, a Cmax [3] of 230 nM and a Tmax [3] of 2 h. It also gave an AUC(0-inf) [3] of 2.69 µM·h, an AUC(0-t) [4] of 2.92 µM·h and a Cmax [4] of 840 nM. It also gave a Tmax [4] of 3 h, an AUC(0-inf) [4] of 2.97 µM·h and a Cmax (Dog #2, 25 mg oral capsule) of 516 nM. The Cmax (Dog #2, 50mg oral capsule) was 909 nM.
